Experimental data published in article PMC6152180, “Design, Synthesis and Evaluation of Hesperetin Derivatives as Potential Multifunctional Anti-Alzheimer Agents” (Molecules : A Journal of Synthetic Chemistry and Natural …, 2017).
Read-outs that look alike come from different tables or passages of the source.

How the values were obtained:
[1] = molecular target: T1, AChE (Electrophorus electricus, UniProt O42275); experiment: biochemical; conditions: for IC50: AChE from electric eel, means ± SEM of three experiments, read-out: AchE Inhibition, (IC50); for Selective Index: Selectivity Index = IC50 (BuChE)/IC50 (AChE)
T1 construct: purchased Sigma-Aldrich C3389-2KU
Procedure: (§1) Acetylcholinesterase (AChE, E.C. 3.1.1.7, obtained from electric eel) was purchased from Sigma-Aldrich (St. Louis, MO, USA, product code: C3389-2KU). Butyrylcholinesterase (BuChE, E.C. 3.1.1.8, obtained from equine serum) was purchased from Aladdin (Shanghai, China, product code: B128570-2KU). […] The compounds were dissolved in a minimum volume of DMSO (1%) and then diluted in 0.1 M KH2PO4/K2HPO4 buffer (pH 8.0) to provide a final concentration range.
(§2) Enzyme solutions were prepared to give 2.0 units/ mL in 2 mL aliquots. The assay medium contained phosphate buffer, pH 8.0 (1 mL), 50 μL of 0.01 M DTNB, 10 μL of enzyme, and 50 μL of 0.01 M substrate (ATC). The substrate was added to the assay medium containing enzyme, buffer, and DTNB with inhibitor after 15 min of incubation time. […] In vitro BuChE assay used the similar method described above [31]. Each concentration was assayed in triplicate.

[2] = molecular target: T2, BuChE (Equus caballus, UniProt P81908); experiment: biochemical; conditions: BuChE from equine serum; means ± SEM of three experiments; read-out: BuChE Inhibition, (IC50)
T2 construct: purchased Aladdin B128570-2KU; host or cells: equine serum
Procedure: as §1, §2

[3] = molecular target: T1, AChE; experiment: Kinetic characterization of AChE inhibition (Lineweaver-Burk plot); type: biochemical; conditions: Lineweaver–Burk plots
Procedure: Three different concentrations (2, 4 and 8 nM) of substrate were mixed in the 1 mL 0.1 M KH2PO4/K2HPO4 buffer (pH 8.0), containing 10 μL AChE, 50 μL of DTNB, and 50 μL substrate. […] A parallel control with no inhibitor in the mixture, allowed adjusting activities to be measured at various times.

[4] = system: PC12 cells; experiment: Protective effect against H2O2-induced cell death in PC12 neurons (MTT); type: cell-based
Procedure: The neuroprotective activity of compound 4f against oxidative stress-induced cell death in PC12 cells was evaluated. Compound 4f was evaluated at concentrations of 1, 2.5 and 5 µM, and quercetin was used as the reference compound. […] […].
PC12 cells were cultured in DMEM media with 10% fetal calf serum (FCS, Hyclone) containing 100 units/mL penicillin and […] streptomycin under 5% CO2 at 37 °C. To produce oxidative stress, H2O2 was freshly prepared from a 30% stock solution prior to each experiment. PC12 cells were plated in cell culture plates at a density of 10^5 cells per well. In our study, 0.2 mM H2O2 were treated with PC12 cells for 24 h in the injury module, while the compound group cells were pretreated with different concentrations (1, 2.5 and 5 μM) of the compound 4f for 2 h. The control group cells were treated with the same medium without H2O2 or compound 4f. The cell viability of PC12 cells was evaluated using MTT assay. After, PC12 cells were cultured with 5 mg/mL MTT and incubated for 4 h at 37 °C. Then the cells were lysed in dimethyl sulfoxide DMSO ([…]). The absorbance was detected at 570 nm by a microplate reader (Bio-Tek). PC12 cells were cultured without 4f or H2O2 as control group and the results were expressed by percentage of control.

[5] = in vitro; conditions: human
Procedure: Thus, we used the methylthiazolyl tetrazolium (MTT) method [30] to perform a neurocyte (SH-SY5Y) toxicity test in vitro.
The SH-SY5Y cell line was seeded on 96-well plates at a density of 10^4 cells/well. […] Subsequently, 10 μL of 5 mg/mL MTT solution was added to each well and further incubated for 4 h at 37 °C. The solution was carefully removed, and each well was treated with DMSO (200 μL for each well). The optical density of the wells was then read on the microplate reader at 570 nm. All the tested compounds were performed in triplicate.

[6] = molecular target: Aβ (1–42) (Homo sapiens, UniProt P05067); experiment: Inhibition of self-mediated Aβ (1–42) aggregation (thioflavin T fluorescence assay); conditions: for inhibition at 20 µM: read-out: Aβ (1–42) aggregation inhibition rate
Procedure: A thioflavin T based fluorometric assay was performed to investigate the self-mediated Aβ (1–42) aggregation [33]. Aβ (1–42) peptide (Sigma-Aldrich) was dissolved in phosphate buffer (0.01 M, pH 7.40) to obtain a 20 μM solution. Compounds were firstly dissolved in DMSO to obtain a 10 mM solution. Inhibitors and the final concentration of Aβ (1–42) were 20 μM. After incubated in 37 °C for 48 h, thioflavin-T (5 μM in 50 mM glycine-NaOH buffer, pH 8.00) was added. […] Each inhibitor was run in triplicate. The fluorescence intensities were recorded, and the percent inhibition on aggregation was calculated by the following expression: (1 − IFi/IFc) × 100% in which IFi and IFc were the fluorescence intensities obtained for absorbance in the presence and absence of inhibitors, respectively, after subtracting the fluorescence of respective blanks.

[7] = Oxygen radical absorbance capacity-fluorescein (ORAC-FL) assay; conditions: Trolox equivalents, Trolox = 1
Procedure: Vitamin E analogue Trolox was used as the standard, and the results were expressed as Trolox equivalents.
The anti-oxidation activity was tested by using the oxygen radical absorbance capacity-fluorescein (ORAC-FL) assay [25, 32]. All the ORAC-assays measure antioxidant scavenging activity against peroxyl radical induced by 2,2′-azobis (2-amidinopropane) dihydrochloride (AAPH) at 37 °C.
The reaction was conducted with 75 mM phosphate buffer (pH 7.4) and the final reaction mixture was 200 μL. Fluorescein (120 μL, 300 nM final concentration) and antioxidant (20 μL) were placed in the wells of a black 96-well plate, and the mixture was incubated for 15 min at 37 °C. Then AAPH solution (60 μL, 12 mM final concentration) was added rapidly. […] 6-hydroxy-2,5,7,8-tetramethylchroman-2-carboxylic acid (Trolox) was used as a standard (1–5 μM, final concentration). A blank (FL + AAPH) using phosphate buffer instead of antioxidant and Trolox calibration were carried out in each assay. The samples were measured at different concentrations (1–5 μM), and at least three independent assays were performed for each sample. Fluorescence measurements were normalized based on the curve of the blank (without antioxidant). Antioxidant curves (fluorescence versus time) were normalized to the curve of the blank in the same assay, and then the area under the fluorescence decay curve (AUC) was calculated. The net AUC of a sample was obtained by subtracting the AUC from the blank. ORAC-FL values were expressed as Trolox equivalents by using the standard curve calculated for each sample, where the ORAC-FL value of Trolox was taken as one, indicating the antioxidant potency of the test compounds.

T1 sequence (O42275 24-633): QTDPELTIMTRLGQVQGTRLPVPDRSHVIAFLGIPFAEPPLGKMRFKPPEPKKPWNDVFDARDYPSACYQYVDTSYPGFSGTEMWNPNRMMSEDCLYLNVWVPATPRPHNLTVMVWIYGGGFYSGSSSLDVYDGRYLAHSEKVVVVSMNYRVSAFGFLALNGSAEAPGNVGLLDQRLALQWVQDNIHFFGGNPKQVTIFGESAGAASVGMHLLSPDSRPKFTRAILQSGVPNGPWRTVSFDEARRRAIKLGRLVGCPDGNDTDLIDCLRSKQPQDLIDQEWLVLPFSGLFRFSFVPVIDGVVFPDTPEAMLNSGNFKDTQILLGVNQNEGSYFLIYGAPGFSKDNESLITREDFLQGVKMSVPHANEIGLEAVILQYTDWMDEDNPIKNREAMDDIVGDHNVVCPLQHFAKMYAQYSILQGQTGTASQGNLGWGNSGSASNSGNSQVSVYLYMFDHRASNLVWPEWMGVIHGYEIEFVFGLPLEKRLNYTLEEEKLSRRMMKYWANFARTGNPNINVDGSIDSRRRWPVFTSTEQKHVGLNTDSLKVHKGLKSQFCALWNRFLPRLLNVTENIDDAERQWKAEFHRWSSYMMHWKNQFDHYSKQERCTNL
Chain of Aβ (1–42) (P05067 672-713): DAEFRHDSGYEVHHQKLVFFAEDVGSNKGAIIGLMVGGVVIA
T2 sequence (P81908 whole entry): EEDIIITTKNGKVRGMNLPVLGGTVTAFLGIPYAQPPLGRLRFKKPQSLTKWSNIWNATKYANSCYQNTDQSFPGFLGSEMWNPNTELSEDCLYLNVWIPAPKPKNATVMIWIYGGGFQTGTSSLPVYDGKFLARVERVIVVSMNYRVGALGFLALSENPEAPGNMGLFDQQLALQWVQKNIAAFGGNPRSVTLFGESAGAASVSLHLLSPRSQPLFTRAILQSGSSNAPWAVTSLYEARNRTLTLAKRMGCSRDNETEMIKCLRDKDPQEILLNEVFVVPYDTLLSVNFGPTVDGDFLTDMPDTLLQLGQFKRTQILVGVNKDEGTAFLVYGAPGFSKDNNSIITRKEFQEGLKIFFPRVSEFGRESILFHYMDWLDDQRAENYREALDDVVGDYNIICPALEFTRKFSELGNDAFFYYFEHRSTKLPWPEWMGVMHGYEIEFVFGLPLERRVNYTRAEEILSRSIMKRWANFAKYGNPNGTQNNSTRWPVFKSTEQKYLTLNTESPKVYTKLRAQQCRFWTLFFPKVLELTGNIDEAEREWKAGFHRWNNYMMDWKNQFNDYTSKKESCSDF

| Compound | IC50 [1] | Selective Index [1] | IC50 [2] | inhibition type against AChE [3] | Ki ([3]; superscript b not defined, read-out: Ki b) | Ki ([3]; superscript c not defined, read-out: Ki c) | Ki ([3]; superscript d not defined, read-out: Ki d) | protective capability compared with quercetin ([4]; 5 µM, H2O2 200 µM) | cytotoxicity toward the PC12 cells ([4]; 1, 2.5 and 5 µM) | protection of PC12 neurons against H2O2-induced cell death ([4]; pretreatment at 1, 2.5 and 5 µM, H2O2 200 µM, p-value < 0.01) | viability at 48 h, 1 µM [5] | viability at 48 h, 10 µM [5] | viability at 48 h, 50 µM [5] | viability at 48 h, 100 µM [5] | IC50 [6] | inhibition at 20 µM [6] | ORAC [7] |
| --- | --- | --- | --- | --- | --- | --- | --- | --- | --- | --- | --- | --- | --- | --- | --- | --- | --- |
| COc1ccc([C@@H]2CC(=O)c3c(O)cc(OCC(=O)NCc4ccc(C(F)(F)F)cc4)cc3O2)cc1O [Compound 4f, 2-[5-Hydroxy-2-(3-hydroxy-4-methoxyphenyl)-4-oxochroman-7-yloxy]-N-(4-trifluoro-methylbenzyl)acetamide] | 9.37 ± 0.87 nM | 305 | 2860 ± 45 nM | mixed-type inhibition | 4.67 nM | 4.27 nM | 3.28 nM | slightly better protective capability than quercetin | no cytotoxicity | significantly protected the neurons against cell death | 100 ± 4.76% | 95.8 ± 7.31% | 83.3 ± 5.44% | 62.3 ± 5.78% | 8470 ± 440 nM | 76.3% |  |
| COc1ccc(C2CC(=O)c3c(O)cc(OCC(=O)NCc4ccncc4)cc3O2)cc1O (stereo not shown) [Compound 4s, 2-[5-Hydroxy-2-(3-hydroxy-4-methoxyphenyl)-4-oxochroman-7-yloxy]-N-pyridin-4-ylmethylacetamide] | 27.3 ± 0.99 nM | 68 | 1850 ± 55 nM |  |  |  |  |  |  |  | 101 ± 6.17% | 97.5 ± 5.36% | 78.7 ± 3.46% | 59.6 ± 3.61% |  | 72% | 2.4 μM of Trolox equivalent/μMof tested compound |
| COc1ccc(C2CC(=O)c3c(O)cc(OCC(=O)NCc4ccco4)cc3O2)cc1O (stereo not shown) [Compound 4t, N-Furan-2-ylmethyl-2-[5-hydroxy-2-(3-hydroxy-4-methoxyphenyl)-4-oxochroman-7-yloxy]acetamide] | 30.6 ± 4.5 nM | 77 | 2350 ± 104 nM |  |  |  |  |  |  |  | 99.9 ± 4.52% | 97.5 ± 3.65% | 81.8 ± 4.06% | 61.2 ± 5.12% |  | 70.8% | 2.6 μM of Trolox equivalent/μMof tested compound |
